Where two headings read alike, the source gives them in different places.

This note sets out measurements from patent US7713994B2 (Wyeth LLC, priority 2005, dated 2010).

The target of test [1] is T1, cyclin E/CDK2 enzyme (Homo sapiens, UniProt P24941).
T1 construct: made in house; host or cells: Sf9 insect cells, recombinant baculovirus
Nature of the test: CDK2 ELISA kinase assay (phospho-Rb ser 795 detection). The test is classed as biochemical. Put shortly:
(§1)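 ELISA format: plate-bound GST-Rb, 200 μM ATP, Sf9 cyclin/CDK enzyme, 1 h at 30° C; then anti-pRb Ser795 primary overnight at 4° C, HRP secondary, TMB. IC50 after no-substrate background subtraction.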

The target in test [2] is T2, cyclin D1/cdk 4 enzyme (Homo sapiens, UniProt P11802).
T2 construct: made in house; host or cells: Sf9 insect cells, recombinant baculovirus
T2 sequence (P11802 whole entry, species assumed): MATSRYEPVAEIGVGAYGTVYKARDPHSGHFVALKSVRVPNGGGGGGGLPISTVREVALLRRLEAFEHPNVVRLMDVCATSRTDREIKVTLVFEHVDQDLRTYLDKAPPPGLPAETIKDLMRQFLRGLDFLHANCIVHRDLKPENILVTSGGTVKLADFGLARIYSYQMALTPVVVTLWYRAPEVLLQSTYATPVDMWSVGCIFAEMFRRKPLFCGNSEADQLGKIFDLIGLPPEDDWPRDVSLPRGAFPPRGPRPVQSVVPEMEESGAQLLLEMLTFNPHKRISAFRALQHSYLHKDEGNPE
T2 sequence (P24385 whole entry partner, species assumed): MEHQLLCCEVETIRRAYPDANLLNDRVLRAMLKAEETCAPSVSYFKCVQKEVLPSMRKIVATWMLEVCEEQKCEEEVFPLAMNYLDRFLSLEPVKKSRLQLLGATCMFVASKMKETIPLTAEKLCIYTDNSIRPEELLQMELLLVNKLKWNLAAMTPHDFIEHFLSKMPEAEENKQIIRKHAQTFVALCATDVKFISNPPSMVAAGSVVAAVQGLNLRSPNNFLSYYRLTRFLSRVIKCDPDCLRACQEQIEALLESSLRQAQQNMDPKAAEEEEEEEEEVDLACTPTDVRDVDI
Nature of the test: CDK4 ELISA kinase assay (phospho-Rb ser 795 detection). The test is classed as biochemical. Summed up: as §1
A general note: In an ELISA, binding on a coated surface is turned into a signal by an enzyme label.

The test system of test [3] is LoVo. Nature of the test: Cytotoxicity assay (SRB), LoVo. The class given is cell-based. To be noted: LoVo cells, SRB, read-out: In Vitro Cellular Activity IC50 LOVO. Put shortly:
(§2)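 Cells grown in RPMI 1640 with 5% FBS were treated with compound for three days (HCT-116, LoVo, MCF-7) or six days (BT474). Viable cell mass was quantified by sulforhodamine B staining of TCA-fixed protein and read at 540 nm.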

Test [4] deals with BT474. Nature of the test: Cytotoxicity assay (SRB), BT474. The class given is cell-based. Summed up:
as §2

Test [5] relates to MCF-7. Nature of the test: Cytotoxicity assay (SRB), MCF-7. The test is classed as cell-based. The note with it: MCF-7 cells, SRB, read-out: In Vitro Cellular Activity IC50 MCF-7. Summed up: as §2
Test [6] addresses T3, cyclin B/CDK1 enzyme (Homo sapiens, UniProt P06493).
T3 construct: purchased New England BioLabs; host or cells: Sf9 insect cells, recombinant baculovirus
Nature of the test: CDK1 ELISA kinase assay (phospho-Rb ser 795 detection). The class given is biochemical. Put shortly:
as §1

The test system of test [7] is HCT-116. Nature of the test: Cytotoxicity assay (SRB), HCT-116. The test is classed as cell-based. The note with it: HCT116 cells, SRB, read-out: In Vitro Cellular Activity IC50 HCT116. Summed up:
as §2

Setting [8] is: In Vitro Enzyme Assays, read-out: CDK2 IC50.
Where [9] appears, read: In Vitro Enzyme Assays, 200 μM ATP, read-out: CDK4 IC50.
Setting [10] is: Homo sapiens, LoVo, 72 h, three days.
Where [11] appears, read: Homo sapiens, BT-474, 144 h, BT474 cells, SRB, 6 days; read-out: In Vitro Cellular Activity IC50 BT474.
Where [12] appears, read: Homo sapiens, MCF7, 72 h, three days.
Where [13] appears, read: In Vitro Enzyme Assays, read-out: CDK1 IC50.
The mark [14] stands for this setting: Homo sapiens, HCT-116, 72 h, three days.
Setting [15] is: In Vitro Enzyme Assay, cyclin E/CDK2, read-out: CDK2 IC50.
The mark [16] stands for this setting: In Vitro Enzyme Assay, cyclin D1/cdk 4, read-out: CDK4 IC50.
The mark [17] stands for this setting: Homo sapiens, LoVo, 72 h, 3 days.
Setting [18] is: Homo sapiens, BT-474, 144 h, BT474 cells, 6 days, SRB; read-out: In Vitro Cellular Activity IC50 BT474.
The mark [19] stands for this setting: Homo sapiens, MCF7, 72 h, 3 days.
Where [20] appears, read: In Vitro Enzyme Assay, cyclin B/CDK1, read-out: CDK1 IC50.
Where [21] appears, read: Homo sapiens, HCT-116, 72 h, 3 days.

T3 sequence (P06493 whole entry): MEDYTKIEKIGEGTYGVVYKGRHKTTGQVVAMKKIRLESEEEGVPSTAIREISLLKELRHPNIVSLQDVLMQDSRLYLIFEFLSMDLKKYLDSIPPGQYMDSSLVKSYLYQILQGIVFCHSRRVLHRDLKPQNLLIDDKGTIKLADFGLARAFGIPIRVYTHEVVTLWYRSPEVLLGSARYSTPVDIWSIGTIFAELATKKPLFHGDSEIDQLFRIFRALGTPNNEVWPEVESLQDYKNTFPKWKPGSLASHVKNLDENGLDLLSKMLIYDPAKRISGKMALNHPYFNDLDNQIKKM
T3 sequence (P14635 whole entry partner): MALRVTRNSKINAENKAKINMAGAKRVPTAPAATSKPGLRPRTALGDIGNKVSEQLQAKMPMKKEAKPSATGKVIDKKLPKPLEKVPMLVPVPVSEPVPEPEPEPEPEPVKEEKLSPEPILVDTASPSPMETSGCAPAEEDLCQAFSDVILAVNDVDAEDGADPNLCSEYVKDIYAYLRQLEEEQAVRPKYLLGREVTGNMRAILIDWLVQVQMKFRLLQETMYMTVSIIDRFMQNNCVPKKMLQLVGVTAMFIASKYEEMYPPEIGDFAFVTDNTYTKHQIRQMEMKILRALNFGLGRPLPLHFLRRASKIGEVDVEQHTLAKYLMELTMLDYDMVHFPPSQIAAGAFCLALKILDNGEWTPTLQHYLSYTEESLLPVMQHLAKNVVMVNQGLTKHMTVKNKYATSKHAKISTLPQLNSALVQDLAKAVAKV

By IC50 is commonly meant the concentration needed to halve the response being measured. For `CN(C)CCN(C)c1ccc(N/C=C2\C(=O)NC(=O)c3ccc(Br)cc32)cc1` [Example 231, (4Z)-6-Bromo-4-[({4-[[2-(dimethylamino)ethyl](methyl)amino]phenyl}amino)methylene]isoquinoline-1,3(2H,4H)-dione], the IC50 in test [1] (setting [8]) is above 50 µM; in test [2] (setting [9]), 3600 nM; in test [3] (setting [10]), 10 µM; in test [4] (setting [11]) it was 8.3 µM; in test [5] (setting [12]) it was 2.4 µM; in test [6] (setting [13]) it was 29.6 µM. Besides, in test [7] (setting [14]), the IC50 stood at 4.1 µM.

Regarding `CCCOc1cc(O)cc(CN/C=C2\C(=O)NC(=O)c3ccc(Br)cc32)c1` [Example 195], the IC50 is above 50 µM in test [1] (setting [8]); 2000 nM in test [2] (setting [9]); 37 µM in test [3] (setting [10]); 17 µM in test [4] (setting [11]); 14 µM in test [5] (setting [12]); above 50 µM in test [6] (setting [13]). For the same molecule, the IC50 in test [7] (setting [14]) came to 6.9 µM.

Regarding `NS(=O)(=O)c1ccc(CNC=C2C(=O)NC(=O)c3ccc(-c4ccc5[nH]ccc5c4)cc32)cc1` [Example 637, 4-({[6-(1H-Indol-5-yl)-1,3-dioxo-2,3-dihydro-1H-isoquinolin-4-ylidenemethyl]-amino}-methyl)-benzenesulfonamide], the IC50 in test [1] (setting [15]) was 13.5 µM; in test [2] (setting [16]) it was 810 nM; in test [3] (setting [17]) it was above 50 µM; in test [4] (setting [18]), 29.2 µM; in test [5] (setting [19]), 22.7 µM; in test [6] (setting [20]), 18 µM. In test [7] (setting [21]), the IC50 is above 50 µM.

Turning to `CN(C)CC(=O)Nc1ccc(CN/C=C2\C(=O)NC(=O)c3ccc(I)cc32)cc1O` [Example 526, N^1-[2-Hydroxy-4-({[(Z)-(6-iodo-1,3-dioxo-2,3-dihydroisoquinolin-4(1H)-ylidene)methyl]amino}methyl)phenyl]-N^2,N^2-dimethylglycinamide], the IC50 is 0.5 µM in test [1] (setting [15]); 20 nM in test [2] (setting [16]); 5.6 µM in test [3] (setting [17]); 7.2 µM in test [4] (setting [18]); 3.3 µM in test [5] (setting [19]); 2.1 µM in test [6] (setting [20]). Further, in test [7] (setting [21]), the IC50 stood at 2.4 µM.

Take `CN1CCN(c2ccc(N/C=C3\C(=O)NC(=O)c4ccc(I)cc43)c(F)n2)CC1` [Example 445, (4Z)-4-({[2-Fluoro-6-(4-methylpiperazin-1-yl)pyridin-3-yl]amino}methylene)-6-iodoisoquinoline-1,3(2H,4H)-dione]: the IC50 in test [1] (setting [8]) was above 50 µM; in test [2] (setting [9]) it was 320 nM; in test [3] (setting [17]) it was 2.7 µM; in test [4] (setting [18]), 2.8 µM; in test [5] (setting [19]) it was 3.2 µM; in test [6] (setting [13]) it was above 50 µM. The IC50 in test [7] (setting [21]) came to 1.8 µM.

As for `CN1CCN(c2ccc(N/C=C3\C(=O)NC(=O)c4ccc(-c5cccc(F)c5)cc43)cc2)CC1` [Example 154, 6-(3-Fluoro-phenyl)-4-{[4-(4-methyl-piperazin-1-yl)-phenylamino]-methylene}-4H-isoquinoline-1,3-dione], the IC50 was above 50 µM in test [1] (setting [8]); 3300 nM in test [2] (setting [9]); 3.2 µM in test [3] (setting [10]); 3 µM in test [4] (setting [11]); 2.7 µM in test [5] (setting [12]); above 50 µM in test [6] (setting [13]). Also, the IC50 in test [7] (setting [14]) is 2.2 µM.

On to `CN1CCCC1c1ccc(N/C=C2\C(=O)NC(=O)c3ccc(-c4cccs4)cc32)cc1` (stereo not drawn) [Example 450, 4-{[4-(1-Methyl-pyrrolidin-2-yl)-phenylamino]-methylene}-6-thiophen-2-yl-4H-isoquinoline-1,3-dione], for which the IC50 is above 50 µM in test [1] (setting [8]); 180 nM in test [2] (setting [9]); 2.8 µM in test [3] (setting [17]); 1.9 µM in test [4] (setting [18]); 2.5 µM in test [5] (setting [19]); above 50 µM in test [6] (setting [13]). The IC50 in test [7] (setting [21]) is 2.5 µM.

As for “PEG5000thio-acetic acid 5-{[(6-iodo-1,3-dioxo-2,3-dihydro-1H-isoquinolin-4-ylidenemethyl)-amino]-methyl}-2-propoxy-phenyl ester [Example 292]”, the IC50 was around 33.9 µM in test [1] (setting [8]); around 1500 nM in test [2] (setting [9]); around 1.2 µM in test [3] (three days); around 0.9 µM in test [4] (BT474 cells, SRB, 6 days; read-out: In Vitro Cellular Activity IC50 BT474); around 6.5 µM in test [5] (three days); around 19.7 µM in test [6] (setting [13]). Also, in test [7] (three days), the IC50 was around 1.2 µM.

Take `O=C1NC(=O)c2ccc(-c3ccc(OC(F)(F)F)cc3)cc2C1=CNCc1ccc(O)c(O)c1` [Example 818, 4-[(3,4-Dihydroxy-benzylamino)-methylene]-6-(4-trifluoromethoxy-phenyl)-4H-isoquinoline-1,3-dione]: the IC50 in test [1] (setting [15]) turned out to be 30.3 µM; in test [2] (setting [16]), 790 nM; in test [3] (setting [17]), 7.4 µM; in test [4] (setting [18]), 22.9 µM; in test [5] (setting [19]), 10.5 µM; in test [6] (setting [20]) it was 36.3 µM. In test [7] (setting [21]), the IC50 amounted to 11.7 µM.

As to `N#Cc1ccc(-c2ccc3c(c2)C(=CNCc2ccc(O)c(O)c2)C(=O)NC3=O)cc1` [Example 784, 4-{4-[(3,4-Dihydroxy-benzylamino)-methylene]-1,3-dioxo-1,2,3,4-tetrahydro-isoquinolin-6-yl}-benzonitrile], the IC50 in test [1] (setting [15]) was 7.3 µM; in test [2] (setting [16]), 60 nM; in test [3] (setting [17]), 35.1 µM; in test [4] (setting [18]) it was above 50 µM; in test [5] (setting [19]), 13.8 µM; in test [6] (setting [20]), 27.7 µM. In test [7] (setting [21]), the IC50 is 8.7 µM.

Regarding `O=C1NC(=O)c2ccc(-c3ccc4c(c3)OCO4)cc2C1=CNCc1ccc(O)c(O)c1` [Example 812, 6-Benzo[1,3]dioxol-5-yl-4-[(3,4-dihydroxy-benzylamino)-methylene]-4H-isoquinoline-1,3-dione], the IC50 in test [1] (setting [15]) was 28.3 µM; in test [2] (setting [16]), 130 nM; in test [3] (setting [17]), above 50 µM; in test [4] (setting [18]), above 50 µM; in test [5] (setting [19]), 49.8 µM; in test [6] (setting [20]), above 50 µM. For the same molecule, in test [7] (setting [21]), the IC50 came out at 44.7 µM.

As to `O=C1NC(=O)c2ccc(Br)cc2/C1=C/Nc1ccc(CN2CCC(O)CC2)cc1` [compound 75], the IC50 is 7.2 µM in test [1] (setting [8]); 290 nM in test [2] (setting [9]); 6 µM in test [3] (setting [10]); 9.7 µM in test [4] (setting [11]); 4.3 µM in test [5] (setting [12]); above 50 µM in test [6] (setting [13]). In addition, the IC50 in test [7] (setting [14]) turned out to be 5.8 µM.

As to `O=C1NC(=O)c2ccc(N(CCC(F)(F)F)CCC(F)(F)F)cc2C1=CNCc1ccc(O)c(O)c1` [Example 611, 6-[Bis-(3,3,3-trifluoro-propyl)-amino]-4-[(3,4-dihydroxy-benzylamino)-methylene]-4H-isoquinoline-1,3-dione], the IC50 in test [1] (setting [15]) worked out at 18.1 µM; in test [2] (setting [16]), 12900 nM; in test [3] (setting [17]), 16.1 µM; in test [4] (setting [18]), 23.6 µM; in test [5] (setting [19]) it was 13.2 µM; in test [6] (setting [20]), 18.1 µM. Further, in test [7] (setting [21]), the IC50 turned out to be 14.1 µM.

On to `CCCCc1ccc(CN/C=C2\C(=O)NC(=O)c3ccc(I)cc32)cc1O` [Example 495, 4-[(4-Butyl-3-hydroxy-benzylamino)-methylene]-6-iodo-4H-isoquinoline-1,3-dione], for which the IC50 in test [1] (setting [15]) was above 50 µM; in test [2] (setting [16]), 300 nM; in test [3] (setting [17]), 6.3 µM; in test [4] (setting [18]) it was 4.5 µM; in test [5] (setting [19]), 3.3 µM; in test [6] (setting [20]), above 50 µM. Besides, in test [7] (setting [21]), the IC50 was 4.9 µM.

Turning to `CC(c1ccc(N/C=C2\C(=O)NC(=O)c3ccc(I)cc32)cc1)N1CCCC1` (stereo not drawn) [Example 354, 6-Iodo-4-{[4-(1-pyrrolidin-1-yl-ethyl)-phenylamino]-methylene}-4H-isoquinoline-1,3-dione], the IC50 was 5 µM in test [1] (setting [8]); 230 nM in test [2] (setting [9]); 3.5 µM in test [3] (setting [10]); 8.6 µM in test [4] (setting [11]); 0.94 µM in test [5] (setting [12]); above 50 µM in test [6] (setting [13]). The IC50 in test [7] (setting [14]) was 4.8 µM.
